Reference: patent US6372691B1, “Method for controlling weeds” (Sumitomo Chemical Company, Limited, priority 1999, dated 2002)

Experiments:
Format in all cases: in vivo
[1] = system: common cocklebur (Xanthium strumarium); assay: Test Example 2: foliar application in greenhouse pots, herbicidal activity; design: key: “0” means that there was no or little difference in the degree of germination or growth between the treated and the untreated tested plants at the time of examination; “10” means that the test plants died completely or their germination or growth was completely inhibited; conditions: index 0 to 10, 10 days after application
Description: (§1) The evaluation of phytotoxicity is as follows:
(§2) Plastic pots having a diameter of 11 cm and a depth of 8 cm were filled with upland soil, and seeded with common cocklebur (Xanthium strumarium) . The test plants were grown in a greenhouse for 5 days. After that, corn was further seeded in each of the above pots and the test plants were grown in the greenhouse for further 16 days. Emulsifiable concentrate comprising compound A or Comparative compound obtained by well mixing 5 parts of compound A or Comparative compound, 6 parts of Sorpol 3005X (produced by Toho Chemical Industry, Co., Ltd.) and 89 parts of xylene was diluted with prescribed amount of water, and the dilution was applied over the test plants uniformly using a small sprayer. The leaf stage of the corns grown for 16 days were 2-leaf stage. After the application, the test plants were grown in the greenhouse for 10 days and then, herbicidal activity and phytotoxicity to corn were examined.

corn [2] = assay: Test Example 2: phytotoxicity to corn; design: key: No harm: Phytotoxicity is hardly seen.; Slight phytotoxicity which does not affect the growth of corn is seen.; Light phytotoxicity and light growth inhibition of corn are seen.; Middle phytotoxicity and growth inhibition of corn are seen.; Serious phytotoxicity and serious growth inhibition of corn are seen; conditions: corn at 2-leaf stage, 10 days after application
Description: as §1
(§3) No harm: Phytotoxicity is hardly seen.
(§4) Light: Light phytotoxicity and light growth inhibition of corn are seen.
(§5) Middle: Middle phytotoxicity and growth inhibition of corn are seen.
(§6) Serious: Serious phytotoxicity and serious growth inhibition of corn are seen.
as §2

corn [3] = assay: Test Example 1: phytotoxicity to corn; design: key: No harm: Phytotoxicity is hardly seen.; Slight phytotoxicity which does not affect the growth of corn is seen.; Light phytotoxicity and light growth inhibition of corn are seen.; Middle phytotoxicity and growth inhibition of corn are seen.; Serious phytotoxicity and serious growth inhibition of corn are seen; conditions: 10 days after application; for Phytotoxicity C1: corn at 1-leaf stage; for Phytotoxicity C2: corn at 2-leaf stage
Source text: as §1, §3, §4, §5, §6
(§7) Plastic pots having a diameter of 11 cm and a depth of 8 cm were filled with upland soil, and seeded with common lambsquarters (Chenopodium album), ivyleaf morningglory (Ipomoea hederacea), velvetleaf (Abutilon theophrasti), and corn. The test plants were grown in a greenhouse for 7 days. After that, other corn was further seeded in each of the above pots and the test plants were grown in the greenhouse for further 19 days. Emulsifiable concentrate comprising compound A obtained by well mixing 5 parts of compound A, 6 parts of Sorpol 3005X (produced by Toho Chemical Industry, Co., Ltd.) and 89 parts of xylene was diluted with prescribed amount of water, and the dilution was applied over the test plants uniformly using a small sprayer. The leaf stage of the corns grown for 26 days and 19 days were 2-leaf stage and 1-leaf stage, respectively. After the application, the test plants were grown in the greenhouse for 10 days and then, herbicidal activity and phytotoxicity to corn were examined.

[4] = system: velvetleaf (Abutilon theophrasti); assay: Test Example 1: foliar application in greenhouse pots, herbicidal activity; design: key: “0” means that there was no or little difference in the degree of germination or growth between the treated and the untreated tested plants at the time of examination; “10” means that the test plants died completely or their germination or growth was completely inhibited; conditions: index 0 to 10, 10 days after application
Description: as §1, §7

[5] = system: common lambsquarters (Chenopodium album); assay: as above; design: key: “0” means that there was no or little difference in the degree of germination or growth between the treated and the untreated tested plants at the time of examination; “10” means that the test plants died completely or their germination or growth was completely inhibited; conditions: index 0 to 10, 10 days after application
Description: as §1, §7

[6] = system: ivyleaf morningglory (Ipomoea hederacea); assay: as above; design: key: “0” means that there was no or little difference in the degree of germination or growth between the treated and the untreated tested plants at the time of examination; “10” means that the test plants died completely or their germination or growth was completely inhibited; conditions: index 0 to 10, 10 days after application
Description: as §1, §7

COC(=O)CSc1cc(-n2c(=O)cc(C(F)(F)F)n(C)c2=O)c(F)cc1Cl [Comparative compound, reference compound]
Herbicidal activity Cocklebur ([1]; dosage 2.5 g/ha): 8 | Herbicidal activity Cocklebur ([1]; dosage 5 g/ha): 10 | Herbicidal activity Cocklebur ([1]; dosage 10 g/ha): 10 | Phytotoxicity corn (corn [2]; dosage 2.5 g/ha): No harm | Phytotoxicity corn (corn [2]; dosage 5 g/ha): Slight | Phytotoxicity corn (corn [2]; dosage 10 g/ha): light

COC(=O)C(C)Oc1cc(-n2c(=O)cc(C(F)(F)F)n(C)c2=O)c(F)cc1Cl (stereo not drawn) [Compound A, methyl 2-[2-chloro-4-fluoro-5-{3-methyl-2,6-dioxo-4-(trifluoromethyl)-1,2,3,6-tetrahydropyrimidin-1-yl}phenoxy]propionate]
Phytotoxicity C1 (corn [3]; dosage 5 g/ha): No harm | Phytotoxicity C1 (corn [3]; dosage 10 g/ha): No harm | Phytotoxicity C1 (corn [3]; dosage 20 g/ha): Slight | Phytotoxicity C2 (corn [3]; dosage 5 g/ha): No harm | Phytotoxicity C2 (corn [3]; dosage 10 g/ha): No harm | Phytotoxicity C2 (corn [3]; dosage 20 g/ha): No harm | Herbicidal activity Cocklebur ([1]; dosage 2.5 g/ha): 10 | Herbicidal activity Cocklebur ([1]; dosage 5 g/ha): 10 | Herbicidal activity Cocklebur ([1]; dosage 10 g/ha): 10 | Phytotoxicity corn (corn [2]; dosage 2.5 g/ha): No harm | Phytotoxicity corn (corn [2]; dosage 5 g/ha): No harm | Phytotoxicity corn (corn [2]; dosage 10 g/ha): No harm | Herbicidal activity Ve ([4]; dosage 5 g/ha): 10 | Herbicidal activity Ve ([4]; dosage 10 g/ha): 10 | Herbicidal activity Ve ([4]; dosage 20 g/ha): 10 | Herbicidal activity La ([5]; dosage 5 g/ha): 9 | Herbicidal activity La ([5]; dosage 10 g/ha): 10 | Herbicidal activity La ([5]; dosage 20 g/ha): 10 | Herbicidal activity Mo ([6]; dosage 5 g/ha): 10 | Herbicidal activity Mo ([6]; dosage 10 g/ha): 10 | Herbicidal activity Mo ([6]; dosage 20 g/ha): 10
